Where two headings read alike, the source gives them in different places.
Assay: clinical
Conditions: human, in vivo; for half-life: read-out: T1/2 (converted); for Tmax: read-out: Tmax
Method: For single-dose PK parameters, plasma samples were taken at pre-dose and 0.5 h, 1 h, 2 h, 3 h, 4 h, 6 h, 8 h, 12 h, 24 h, 48 h, 72 h, 96 h, 120 h, 144 h, and 168 h post-dose in PK lead-in phase of dose-escalation phase, and plasma samples were also taken at pre-dose and 0.5 h, 1 h, 2 h, 3 h, 4 h, 6 h, 8 h, 12 h, and 24 h post-dose in cycle 1 day 1 of dose-expansion phase. During continuous dosing, serial plasma samples were collected at pre-dose in cycle 1 day 15, pre-dose in cycle 1 day 22, pre-dose and 0.5 h, 1 h, 2 h, 3 h, 4 h, 6 h, 8 h, 12 h, and 24 h post-dose in cycle 1 day 28 for all dose cohorts. The following PK parameters were assessed: area under the concentration-time curve from the time of dosing extrapolated to infinity, based on the last observed concentration (AUCINF_obs); area under the concentration-time curve from the time of dosing to the time of last observation (AUClast); maximum concentration (Cmax); time to maximum concentration (Tmax); elimination half-life (T1/2); and mean residence time from the time of dosing to the time of the last measurable concentration (MRTlast).

[1] = 100 mg, cycle 1 day 28 of dose-expansion phase, 100 mg (n=5), mean
[2] = 100 mg, single dose, cycle 1 day 1 of dose-expansion phase, 100 mg (n=5), mean
[3] = 450 mg, cycle 1 day 28 of dose-expansion phase, 450 mg (n=10), mean
[4] = 450 mg, single dose, cycle 1 day 1 of dose-expansion phase, 450 mg (n=10), mean
[5] = 600 mg, cycle 1 day 28 of dose-expansion phase, 600 mg (n=10), mean
[6] = 600 mg, single dose, cycle 1 day 1 of dose-expansion phase, 600 mg (n=10), mean
[7] = cycle 1 day 28 of dose-escalation phase, 50 mg (n=2), mean
[8] = cycle 1 day 28 of dose-escalation phase, 100 mg (n=3), mean
[9] = cycle 1 day 28 of dose-escalation phase, 200 mg (n=3), mean
[10] = cycle 1 day 28 of dose-escalation phase, 300 mg (n=3), mean
[11] = cycle 1 day 28 of dose-escalation phase, 450 mg (n=3), mean

COc1cc(N2CCC(N3CCN(C)CC3)CC2)ccc1Nc1nc2c(c(Nc3ccccc3S(=O)(=O)NC(C)C)n1)CCN2 [Conteltinib]
Cmax (100 mg, Cmax): 123 ng/mL | AUC(0-t) [1]: 1710 ng·h/mL | MRT last [1]: 10.7 h | AUC(0-inf) (100 mg, cycle 1 day 28 of dose-expansion phase, 100 mg (n=5), mean, read-out: AUCINF_obs): 6460 ng·h/mL | half-life [1]: 3190 min | Tmax [1]: 2 h | AUC(0-t) [2]: 737 ng·h/mL | MRT last [2]: 8.9 h | AUC(0-inf) (100 mg, single dose, cycle 1 day 1 of dose-expansion phase, 100 mg (n=5), mean, read-out: AUCINF_obs): 1310 ng·h/mL | Cmax (100 mg, single dose, cycle 1 day 1 of dose-expansion phase, 100 mg (n=5), mean, read-out: Cmax): 85.5 ng/mL | half-life [2]: 1600 min | Tmax [2]: 2.7 h | AUC(0-t) [3]: 7040 ng·h/mL | MRT last [3]: 10.5 h | AUC(0-inf) (450 mg, cycle 1 day 28 of dose-expansion phase, 450 mg (n=10), mean, read-out: AUCINF_obs): 15700 ng·h/mL | Cmax (450 mg, cycle 1 day 28 of dose-expansion phase, 450 mg (n=10), mean, read-out: Cmax): 491 ng/mL | half-life [3]: 1580 min | Tmax [3]: 3 h | AUC(0-t) [4]: 3060 ng·h/mL | MRT last [4]: 9.3 h | AUC(0-inf) (450 mg, single dose, cycle 1 day 1 of dose-expansion phase, 450 mg (n=10), mean, read-out: AUCINF_obs): 6340 ng·h/mL | Cmax (450 mg, single dose, cycle 1 day 1 of dose-expansion phase, 450 mg (n=10), mean, read-out: Cmax): 328 ng/mL | Tmax [4]: 2.3 h | AUC(0-inf) (600 mg, AUCINF_obs): 7150 ng·h/mL | AUC(0-t) [5]: 11900 ng·h/mL | AUC(0-inf) (600 mg, cycle 1 day 28 of dose-expansion phase, 600 mg (n=10), mean, read-out: AUCINF_obs): 32500 ng·h/mL | Cmax (600 mg, cycle 1 day 28 of dose-expansion phase, 600 mg (n=10), mean, read-out: Cmax): 772 ng/mL | half-life [5]: 2230 min | Tmax [5]: 3.3 h | AUC(0-t) [6]: 4610 ng·h/mL | MRT last [6]: 9.8 h | Cmax (600 mg, single dose, cycle 1 day 1 of dose-expansion phase, 600 mg (n=10), mean, read-out: Cmax): 472 ng/mL | half-life [6]: 1000 min | Tmax [6]: 4.6 h | AUC(0-t) [7]: 683 ng·h/mL | AUC(0-inf) (cycle 1 day 28 of dose-escalation phase, 50 mg (n=2), mean, read-out: AUCINF_obs): 16700 ng·h/mL | Cmax (cycle 1 day 28 of dose-escalation phase, 50 mg (n=2), mean, read-out: Cmax): 42.7 ng/mL | half-life [7]: 21100 min | Tmax [7]: 1.5 h | AUC(0-t) [8]: 1480 ng·h/mL | AUC(0-inf) (cycle 1 day 28 of dose-escalation phase, 100 mg (n=3), mean, read-out: AUCINF_obs): 6110 ng·h/mL | Cmax (cycle 1 day 28 of dose-escalation phase, 100 mg (n=3), mean, read-out: Cmax): 106 ng/mL | half-life [8]: 3670 min | Tmax [8]: 2.7 h | AUC(0-t) [9]: 3570 ng·h/mL | MRT last [9]: 11.2 h | AUC(0-inf) (cycle 1 day 28 of dose-escalation phase, 200 mg (n=3), mean, read-out: AUCINF_obs): 12400 ng·h/mL | Cmax (cycle 1 day 28 of dose-escalation phase, 200 mg (n=3), mean, read-out: Cmax): 259 ng/mL | half-life [9]: 2530 min | Tmax [9]: 3 h | AUC(0-t) [10]: 4860 ng·h/mL | AUC(0-inf) (cycle 1 day 28 of dose-escalation phase, 300 mg (n=3), mean, read-out: AUCINF_obs): 19000 ng·h/mL | Cmax (cycle 1 day 28 of dose-escalation phase, 300 mg (n=3), mean, read-out: Cmax): 282 ng/mL | half-life [10]: 3050 min | Tmax [10]: 3 h | AUC(0-t) [11]: 8050 ng·h/mL | MRT last [11]: 11.6 h | AUC(0-inf) (cycle 1 day 28 of dose-escalation phase, 450 mg (n=3), mean, read-out: AUCINF_obs): 34400 ng·h/mL | Cmax (cycle 1 day 28 of dose-escalation phase, 450 mg (n=3), mean, read-out: Cmax): 474 ng/mL | half-life [11]: 2920 min

Reference: article PMC9694544, “Conteltinib (CT-707) in patients with advanced ALK-positive non-small cell lung cancer: a multicenter, open-label, first-in-human phase 1 study” (BMC Medicine, 2022)
